This test deals with T1, MAGL protein (Homo sapiens, UniProt Q99685).
T1 sequence (Q99685 1-303): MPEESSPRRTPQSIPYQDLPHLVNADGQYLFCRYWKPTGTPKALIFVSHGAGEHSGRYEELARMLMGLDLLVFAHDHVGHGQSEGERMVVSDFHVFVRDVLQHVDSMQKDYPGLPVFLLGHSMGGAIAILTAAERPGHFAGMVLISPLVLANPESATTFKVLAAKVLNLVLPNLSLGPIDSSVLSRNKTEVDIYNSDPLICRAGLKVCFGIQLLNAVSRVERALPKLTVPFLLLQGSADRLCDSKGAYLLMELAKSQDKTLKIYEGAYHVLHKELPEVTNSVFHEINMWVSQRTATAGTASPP
Description: 2-AG assay: MAGL inhibitory activity by hydrolysis of 2-arachidonoylglycerol to arachidonic acid, followed by mass spectrometry. As to conditions: 8 μM 2-arachidonoylglycerol, 15 min preincubation, 30 min reaction at RT, RapidFire MS readout. In kind it is biochemical. A digest of the protocol:
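Activity was measured by RapidFire SPE–triple-quad MS as the ratio of arachidonic acid to d8-arachidonic acid after 2-AG hydrolysis (8 μM substrate, 30 min, RT, acetonitrile quench). Compounds, tested from 12.5 μM down to […], were first preincubated 15 min with MAGL in TRIS/EDTA/Tween-20 buffer containing 2.5% DMSO.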

pIC50: −log10 of the molar value.

In general, pIC50 refers to −log10 of the IC50, conventionally taken in molar units. Take `O=C(N1CC2(CCN(Cc3ncc(C(F)F)s3)CC2)C1)N1CC2(CC(c3nc(C4CC4)n[nH]3)C2)C1` [compound 507]: the pIC50 was 8.23.

`CS(=N)(=O)c1ccc(CC2CC3(C2)CN(C(=O)N2CC4(CC(c5nc(C6CC(F)(F)C6)n[nH]5)C4)C2)C3)cc1` (centres unmarked) [compound 976] showed a pIC50 of 5.75. In the case of `O=C(N1CC(c2ccc(N3CC(C(F)(F)F)C3)nc2)C1)N1CC2(CC(c3nnc(C4(O)CC4)[nH]3)C2)C1` [compound 259] it was 8.44.

The compound `O=C(N1CC(c2cnc(OCC3(C(F)(F)F)CC3)cn2)C1)N1CC2(CC(c3nc(C4CC4)n[nH]3)C2)C1` [compound 469] showed a pIC50 of 8.95. Under `O=C(N1CC2(CC(Oc3ccc(C(F)(F)F)nc3)C2)C1)N1CC2(CC(c3nnc(C4CC4)[nH]3)C2)C1` [compound 131] stands 8.55; under `CS(=O)(=O)c1ccc(COC2CN(C(=O)N3CC4(CC(c5nnc(C6CC6)[nH]5)C4)C3)C2)cc1` [compound 333], 6.80; under `N=S(=O)(c1cccc(CC2CC3(C2)CN(C(=O)N2CC4(CC(c5nc(C6(O)CC6)n[nH]5)C4)C2)C3)c1)C(F)(F)F` (centres unmarked) [compound 532], 9.68. `O=C(N1CC2(CC(Cc3ncc(F)cc3Cl)C2)C1)N1CC2(CC(c3nnc(C4CC4)[nH]3)C2)C1` [compound 117]: the pIC50 was 10.00. Compound `O=C(N1CC2(CC(c3nc(C4CC4)n[nH]3)C2)C1)N1CC2(CN(Cc3cnn(C(F)(F)F)c3)C2)C1` [compound 513] had a pIC50 of 7.50. Under `O=C(N1CC(c2ccc(NCC3(C(F)(F)F)CC3)nc2)C1)N1CC2(CC(c3nnc(C4(O)CC4)[nH]3)C2)C1` [compound 254] stands 8.90. In turn, `O=C(N1CC2(CC(c3nc(C4CC4)n[nH]3)C2)C1)N1CC2(CN(Cc3nc(CC(F)(F)F)no3)C2)C1` [compound 695] showed a pIC50 of 7.36. For the compound `Cc1onc(C2CC2)c1CN1CC2(C1)CN(C(=O)N1CC3(CC(c4nc(C5CC5)n[nH]4)C3)C1)C2` [compound 686], the pIC50 was 7.85. In the case of `N=S(=O)(c1ccc(COC2CN(C(=O)N3CC4(CC(c5nc(C6CC6)n[nH]5)C4)C3)C2)c(F)c1)C(F)(F)F` (centres unmarked) [Example 632, [6-(3-cyclopropyl-1H-1,2,4-triazol-5-yl)-2-azaspiro[3,3]heptan-2-yl]-[3-[2-fluoro-4-(trifluoromethylsulfonimidoyl)benzyl]oxyazetidin-1-yl]methanone] it was 7.91.

As to `N=[S@](=O)(c1ccc(CC2CC3(C2)CN(C(=O)N2CC4(CC(c5nnc(C6(N)CC6)[nH]5)C4)C2)C3)cc1)C(F)(F)F` (stereo in doubt) [Example 474, [6-[5-(1-aminocyclopropyl)-4H-1,2,4-triazol-3-yl]-2-azaspiro[3.3]heptan-2-yl]-[6-[[4-(trifluoromethyl-sulfonimidoyl)phenyl]methyl]-2-azaspiro[3.3]heptan-2-yl]methanone], the negative-log IC50 (pIC50) is 8.34. `CC(C)(C)CS(=O)(=O)NC1CC2(C1)CN(C(=O)N1CC3(CC(c4nnc(C5CC5)[nH]4)C3)C1)C2` [compound 225] gave a negative-log IC50 (pIC50) of 8.44. Under `O=C(N1CC2(CC(c3nnc(C4CC4)[nH]3)C2)C1)N1CC2(CC(N3CCS(=O)(=O)CC3)C2)C1` [compound 220] stands 6.68. Under `Cn1ncc(CC2CC3(C2)CN(C(=O)N2CC4(CC(c5nc(C6COC6)n[nH]5)C4)C2)C3)c1C(F)(F)F` [compound 774] stands 8.10; under `O=C(N1CC(c2cnc(N3CCC(C(F)(F)F)C3)nc2)C1)N1CC2(CC(c3nnc(C4CC4)[nH]3)C2)C1` (centres unmarked) [compound 264], 8.64. In turn, `COc1cc(Cl)ccc1CN(C)C1CCN(C(=O)N2CC3(CC(c4nnc(C5CC5)[nH]4)C3)C2)CC1` [Example 893, [4-[(4-chloro-2-methoxy-benzyl)-methyl-amino]piperidino]-[6-(5-cyclopropyl-4H-1,2,4-triazol-3-yl)-2-azaspiro[3.3]heptan-2-yl]methanone] gave a negative logarithm of the IC50 (pIC50) of 7.02. The compound `N#Cc1ccc(OC2CC3(C2)CN(C(=O)N2CC4(CC(c5nc(C6CC6)n[nH]5)C4)C2)C3)cc1C(F)(F)F` [compound 605] had a negative logarithm of the IC50 (pIC50) of 9.07. For the compound `O=C(N1CC(CN2CCC(F)(F)CC2)C1)N1CC2(CC(c3nnc(C4CC4)[nH]3)C2)C1` [compound 219], the negative-log IC50 (pIC50) is 6.04.

`O=C(N1CC2(CC(Cc3cn[nH]c3C(F)(F)F)C2)C1)N1CC2(CC(c3nc(C4CC4)n[nH]3)C2)C1` [compound 607]: the negative logarithm of the IC50 (pIC50) was 10.10. As for `O=C(N1CC(c2ccc([C@H]3C[C@H](C(F)F)C3)nc2)C1)N1CC2(CC(c3nnc(C4CC4)[nH]3)C2)C1` [compound 301], the pIC50 is 8.77. Take `O=C(N1CC2(CC(c3nnc(C4CC4)[nH]3)C2)C1)N1CC2(CC(N3CC(C(F)(F)F)C3)C2)C1` [compound 83]: the pIC50 was 7.59. The compound `Cn1nc(C(F)(F)F)cc1CN1CC2(C1)CN(C(=O)N1CC3(CC(c4nc(C5CC5)n[nH]4)C3)C1)C2` [compound 650] showed a pIC50 of 8.01. In the case of `CS(=O)(=O)c1cc(Cl)ccc1-c1ccc(C2CN(C(=O)N3CC4(CC(c5ncn[nH]5)C4)C3)C2)cc1` [compound 454] it was 6.89; in that of `O=C(N1CC(c2ccc(C3CC(C(F)F)C3)cc2)C1)N1CC2(CC(c3nnc(C4(O)CC4)[nH]3)C2)C1` (centres unmarked) [compound 282], 8.99. In the case of `O=C(N1CC(OCc2ccc(OC(F)(F)F)cc2)C1)N1CC2(CC(c3nnc(C4CC4)[nH]3)C2)C1` [compound 315] it was 8.31. Turning to `CCNC(=O)c1cc(Cl)ccc1C12CC(C3CN(C(=O)N4CC5(CC(c6nnc(C7CC7)[nH]6)C5)C4)C3)(C1)C2` [compound 767], the pIC50 is 8.39. Under `CS(=N)(=O)c1ccc(CC2CC3(C2)CN(C(=O)N2CC4(CC(c5nnc(C6CC6)[nH]5)C4)C2)C3)cc1` (centres unmarked) [compound 123] stands 8.40; under `O=C(N1CC(NCc2ccc(C(F)(F)F)cc2F)C1)N1CC2(CC(c3nnc(C4(O)CC4)[nH]3)C2)C1` [compound 198], 6.75; under `CC(C)(C)Cc1ccc(C2CN(C(=O)N3CC4(CC(c5nnc(C6CC6)[nH]5)C4)C3)C2)cn1` [compound 299], 10.30.

`O=C(N1CC2(CC(Cc3ccc(C(F)(F)F)nn3)C2)C1)N1CC2(CC(c3nnc(C4(O)CC4)[nH]3)C2)C1` [compound 23] had a negative-log IC50 (pIC50) of 8.35. In the case of `CNc1ccc(C(=O)N2CCN(C(=O)N3CC4(CC(c5nnc(C6CC6)[nH]5)C4)C3)CC2)cc1` [Example 871, [4-[6-(5-cyclopropyl-4H-1,2,4-triazol-3-yl)-2-azaspiro[3.3]heptane-2-carbonyl]piperazino]-[4-(methylamino)phenyl]methanone] it was 6.47; in that of `CC(C)(C)Cc1nnc(C23CC(C4CCN(C(=O)N5CC6(CC(c7nc(C8(O)CC8)n[nH]7)C6)C5)CC4)(C2)C3)o1` [compound 498], 6.71. Consider `O=C(N1CC2(CC(Cc3ccc(OC(F)(F)F)nc3)C2)C1)N1CC2(CC(c3nc(C4CC(F)(F)C4)n[nH]3)C2)C1` [compound 566], for which the pIC50 was 7.83.

Turning to `CS(=O)(=O)c1cncc(CC2CC3(C2)CN(C(=O)N2CC4(CC(c5nnc(C6CC6)[nH]5)C4)C2)C3)c1` [compound 120], the pIC50 is 7.38. Under `O=C(N1CC2(CC(Cc3ccc4ncnn4c3)C2)C1)N1CC2(CC(c3nc(C4CC4)n[nH]3)C2)C1` [compound 645] stands 8.18; under `O=C(N1CC2(CC(Cc3ccc4nnc(C(F)(F)F)n4c3)C2)C1)N1CC2(CC(c3nc(C4CC4)n[nH]3)C2)C1` [compound 995], 8.56; under `O=C(N1CC(NS(=O)(=O)C2CCC(F)(F)CC2)C1)N1CC2(CC(c3nnc(C4CC4)[nH]3)C2)C1` [compound 204], 5.87. Consider `O=C(N1CC2(CC(c3nc(C4CC4)n[nH]3)C2)C1)N1CC2(CC(n3cnc(O)n3)C2)C1` [Example 648, [6-(3-cyclopropyl-1H-1,2,4-triazol-5-yl)-2-azaspiro[3.3]heptan-2-yl]-[6-(3-hydroxy-1,2,4-triazol-1-yl)-2-azaspiro[3.3]heptan-2-yl]methanone], for which the negative logarithm of the IC50 (pIC50) was 5.82. In the case of `CC1(O)CN(c2ccc(C3CN(C(=O)N4CC5(CC(c6nnc(C7CC7)[nH]6)C5)C4)C3)cn2)C1` [compound 82] it was 7.69; in that of `O=C(N1CC2(CC(Cc3cnn(C(F)(F)F)c3)C2)C1)N1CC2(CC(c3nc(C4(O)CC4)n[nH]3)C2)C1` [compound 727], 8.57; in that of `O=C(N1CC(C23CC(NCC4(C(F)(F)F)CC4)(C2)C3)C1)N1CC2(CC(c3nc(C4(F)CC4)n[nH]3)C2)C1` [compound 578], 9.29. Regarding `N#Cc1cc(CC2CC3(C2)CN(C(=O)N2CC4(CC(c5nc(C6(F)CC6)n[nH]5)C4)C2)C3)cc(C(F)(F)F)c1` [compound 464], the pIC50 is 10.15.

`O=C(N1CC2(CCC(Cc3ccc(C(F)(F)F)cn3)CC2)C1)N1CC2(CC(c3nnc(C4CC4)[nH]3)C2)C1` [compound 48]: the negative-log IC50 (pIC50) was 9.89.

As to `O=C(N1CC2(CCC(Cc3ccc(C(F)(F)F)nc3)C2)C1)N1CC2(CC(c3nnc(C4CC4)[nH]3)C2)C1` (centres unmarked) [compound 152], the pIC50 is 9.37. In turn, `N#Cc1cc(CC2CC3(C2)CN(C(=O)N2CC4(CC(c5nc(C6CC(F)(F)C6)n[nH]5)C4)C2)C3)ccc1C(F)(F)F` [compound 547] had a negative-log IC50 (pIC50) of 8.23.

Turning to `O=C(N1CC2(CCC(Cc3ccc(Cl)cn3)CC2)C1)N1CC2(CC(c3nnc(C4(O)CC4)[nH]3)C2)C1` [compound 139], the pIC50 is 8.41.

The compound `O=C(N1CC2(CC(c3nc(C4CC4)n[nH]3)C2)C1)N1CC2(CN(Cc3cnn(CC(F)(F)F)c3)C2)C1` [compound 568] had a negative-log IC50 (pIC50) of 6.39.

The record behind these values is US20250099448A1, “HETEROCYCLIC COMPOUNDS” (Hoffmann-La Roche Inc., priority 2022, published 2025).
